# Measurements: patent US20190233884A1 (University of Southern California, priority 2016, published 2019)
# Entries after “also recorded” stand apart in the source; their conditions may differ.
# Test system: patients with refractory metastatic colorectal cancer (mCRC)
# Experiment: PFS, OS and disease control in the control cohort of refractory mCRC patients receiving regorafenib (n=52, Italy), by baseline characteristics and SNP genotype
# Type: in vivo, human
# Settings: for Median OS (months) / Median PFS (months): ITA REGORA cohort; for Disease Control CR/PR/SD, patients n (%) / Median OS (95% CI) / Median PFS (95% CI) / PD, patients n (%) / HR OS (95% CI) / HR PFS (95% CI) / Median OS / Median PFS / HR OS / HR PFS: control cohort
# Experimental: All patients underwent the treatment in salvage-line setting.
# (§1) Patients in the control group received 160 mg regorafenib (Bayer, Leverkusen, Germany) once daily from day 1 to 21 every 4 weeks. Doses were adjusted based on haematological and non-haematological adverse events at the treating physician's discretion in accordance with the manufacturer's recommendations. The analyses were approved by the University of Southern California (USC) Institutional Review Board of Medical Sciences and conducted at the USC/Norris Comprehensive Cancer Center in accordance with the Declaration of Helsinki and Good Clinical Practice Guidelines.
# (§2) Genomic DNA was extracted from peripheral whole blood in patients of all cohorts using the QIAmp Kit (Qiagen, Valencia, Calif., USA) according to the manufacturer's protocol (www.qiagen.com). The candidate SNPs were genotyped using PCR-based direct DNA sequence analysis by ABI 3100A Capillary Genetic Analyzer and Sequencing Scanner v1.0 (Applied Biosystems). Amplification of extracted DNA was carried out using both forward and reverse primers for each gene polymorphism as shown in Table 1. […] The investigators analyzing SNPs were blinded to the clinical data of the study patients.
# The primary endpoint in this study was progression-free survival (PFS), and the secondary endpoints were overall survival (OS) and disease control rate (DCR). PFS was calculated from the date of starting treatment to the first observation of disease progression or death from any cause. If a patient had no disease progression or death, PFS was censored at the date of last follow up. OS was calculated from the date of starting treatment until the date of death from any cause or the date of the last follow-up, at which point OS was censored. The disease control rate (DCR) was defined as the proportion of patients who achieved a stable disease (SD) or […] according to RECISTv1.1. Chi-square test was used to examine the difference in baseline patient characteristics among the three cohorts. Allelic distribution of all SNPs by ethnicity for deviation from Hardy-Weinberg equilibrium and the allelic frequencies of SNPs were tested using the Chi-square tests with one degree of freedom. The associations between candidate SNPs and disease control, and toxicities were examined using contingency tables and Fisher's exact test. The associations of SNPs with PFS and OS were analysed using Kaplan-Meier curves and the log-rank test. Because the true mode of inheritance of candidate SNPs was not established yet, a codominant or dominant genetic model if appropriate was considered.
# All patients underwent the treatment in salvage-line setting. […] In all patients, adverse events were graded according to the Common Terminology Criteria for Adverse Events, version 4.0.
# as §1, with “events at treating physician's” for “events at the treating physician's”
# as §2, with “tested” for “genotyped”, “Biosystems).” for “Biosystems). Amplification of extracted DNA was carried out using both forward and reverse primers for each gene polymorphism as shown in Table 1.”, “data.” for “data of the study patients.”
# The primary endpoint in this study was progression-free survival (PFS), and the secondary endpoints were overall survival (OS) and disease control rate (DCR). […]
# [1] = ATM rs609429 Any G vs C/C (Ref.), multivariable
# [2] = ATM rs609429 Any G vs C/C (Ref.), univariate
# [3] = Adjuvant history No vs Yes (Ref.), univariate
# [4] = Age ≥61 vs <61 (Ref.), univariate
# [5] = CHEK2 rs2267130 Any C vs T/T (Ref.), multivariable
# [6] = CHEK2 rs2267130 Any C vs T/T (Ref.), univariate
# [7] = CHEK2 rs2267130 C/C vs T/T (Ref.), multivariable
# [8] = CHEK2 rs2267130 C/C vs T/T (Ref.), univariate
# [9] = CHEK2 rs2267130 T/C vs T/T (Ref.), multivariable
# [10] = CHEK2 rs2267130 T/C vs T/T (Ref.), univariate
# [11] = KRAS Mutant vs Wild type (Ref.), univariate
# [12] = LN metastasis No vs Yes (Ref.), univariate
# [13] = Liver metastasis No vs Yes (Ref.), univariate
# [14] = Lung metastasis No vs Yes (Ref.), univariate
# [15] = Number of metastases >2 vs ≤2 (Ref.), univariate
# [16] = Performance status ECOG 1 vs ECOG 0 (Ref.), univariate
# [17] = Peritoneal No vs Yes (Ref.), univariate
# [18] = Pre-chemo numbers ≥4 vs <4 (Ref.), univariate
# [19] = Primary tumor resection No vs Yes (Ref.), univariate
smiles,measurement,setting,value
CNC(=O)c1cc(Oc2ccc(NC(=O)Nc3ccc(Cl)c(C(F)(F)F)c3)c(F)c2)ccn1 [regorafenib],Median OS (months),ATM rs609429 C/C (n=28),4.5 months
same,Median OS (months),ATM rs609429 G/C or G/G (n=24),5.9 months
same,Median OS (months),XRCC3 rs861539 G/A (n=37),5.9 months
same,Median PFS (months),XRCC3 rs861539 G/A (n=37),1.9 months
same,Median OS (months),XRCC3 rs861539 G/G (n=15),4.1 months
same,Median PFS (months),XRCC3 rs861539 G/G (n=15),1.7 months
same,association of candidate SNPs with PFS or OS,"control cohort receiving regorafenib without previous TAS-102, uni- and multivariate analyses",no significant differences; also recorded: no significant association
same,"Disease Control CR/PR/SD, patients n (%)",ATM rs609429 Any G,9 (38%)
same,Median OS (95% CI),ATM rs609429 Any G,"5.9 (3.5, 10.2) months"
same,Median PFS (95% CI),ATM rs609429 Any G,"2.0 (1.7, 3.1) months"
same,"PD, patients n (%)",ATM rs609429 Any G,15 (63%)
same,HR OS (95% CI),[1],"0.84 (0.47, 1.48)"
same,HR PFS (95% CI),[1],"1.06 (0.60, 1.87)"
same,HR OS (95% CI),[2],"1.91 (0.44, 8.31)"
same,HR PFS (95% CI),[2],"0.95 (0.55, 1.66)"
same,"Disease Control CR/PR/SD, patients n (%)",ATM rs609429 C/C,8 (32%)
same,Median OS (95% CI),ATM rs609429 C/C,"4.6 (2.6, 7.6) months"
same,Median PFS (95% CI),ATM rs609429 C/C,"1.9 (1.6, 2.8) months"
same,"PD, patients n (%)",ATM rs609429 C/C,17 (68%)
same,"Disease Control CR/PR/SD, patients n (%)",ATM rs609429 C/G,8 (38%)
same,"PD, patients n (%)",ATM rs609429 C/G,13 (62%)
same,"Disease Control CR/PR/SD, patients n (%)",ATM rs609429 G/G,1 (33%)
same,"PD, patients n (%)",ATM rs609429 G/G,2 (67%)
same,Median OS,Adjuvant history No,5.9 months
same,Median PFS,Adjuvant history No,2.0 months
same,HR OS,[3],0.59
same,HR PFS,[3],0.71
same,Median OS,Adjuvant history Yes,3.9 months
same,Median PFS,Adjuvant history Yes,1.8 months
same,Median OS,Age <61,5.1 months
same,Median PFS,Age <61,1.8 months
same,Median OS,Age ≥61,5.8 months
same,Median PFS,Age ≥61,2.1 months
same,HR OS,[4],0.74
same,HR PFS,[4],0.58
same,"Disease Control CR/PR/SD, patients n (%)",CHEK2 rs2267130 Any C,13 (36%)
same,Median OS (95% CI),CHEK2 rs2267130 Any C,"5.9 (4.4, 7.9) months"
same,Median PFS (95% CI),CHEK2 rs2267130 Any C,"1.8 (1.7, 2.8) months"
same,"PD, patients n (%)",CHEK2 rs2267130 Any C,23 (64%)
same,HR OS (95% CI),[5],"0.81 (0.42, 1.54)"
same,HR PFS (95% CI),[5],"1.22 (0.65, 2.28)"
same,HR OS (95% CI),[6],"0.80 (0.44, 1.48)"
same,HR PFS (95% CI),[6],"1.07 (0.58, 1.95)"
same,"Disease Control CR/PR/SD, patients n (%)",CHEK2 rs2267130 C/C,3 (27%)
same,Median OS (95% CI),CHEK2 rs2267130 C/C,"5.7 (2.0, 7.8) months"
same,Median PFS (95% CI),CHEK2 rs2267130 C/C,"2.0 (1.5, 2.7) months"
same,"PD, patients n (%)",CHEK2 rs2267130 C/C,8 (73%)
same,HR OS (95% CI),[7],"0.90 (0.41, 2.00)"
same,HR PFS (95% CI),[7],"1.35 (0.61, 2.99)"
same,HR OS (95% CI),[8],"0.89 (0.41, 1.97)"
same,HR PFS (95% CI),[8],"1.18 (0.54, 2.59)"
same,"Disease Control CR/PR/SD, patients n (%)",CHEK2 rs2267130 T/C,10 (40%)
same,Median OS (95% CI),CHEK2 rs2267130 T/C,"6.2 (2.4, 8.9) months"
same,Median PFS (95% CI),CHEK2 rs2267130 T/C,"1.8 (1.6, 3.1) months"
same,"PD, patients n (%)",CHEK2 rs2267130 T/C,15 (60%)
same,HR OS (95% CI),[9],"0.76 (0.38, 1.53)"
same,HR PFS (95% CI),[9],"1.15 (0.58, 2.27)"
same,HR OS (95% CI),[10],"0.77 (0.40, 1.48)"
same,HR PFS (95% CI),[10],"1.02 (0.54, 1.95)"
same,"Disease Control CR/PR/SD, patients n (%)",CHEK2 rs2267130 T/T,4 (31%)
same,Median OS (95% CI),CHEK2 rs2267130 T/T,"3.8 (2.2, 8.0) months"
same,Median PFS (95% CI),CHEK2 rs2267130 T/T,"1.9 (1.4, 3.4) months"
same,"PD, patients n (%)",CHEK2 rs2267130 T/T,9 (69%)
same,Median OS,KRAS Mutant,4.8 months
same,Median PFS,KRAS Mutant,2.0 months
same,HR OS,[11],0.93
same,HR PFS,[11],1.05
same,Median OS,KRAS Wild type,6.3 months
same,Median PFS,KRAS Wild type,1.9 months
same,Median OS,LN metastasis No,7.7 months
same,Median PFS,LN metastasis No,2.8 months
same,HR OS,[12],0.62
same,HR PFS,[12],0.52
same,Median OS,LN metastasis Yes,3.8 months
same,Median PFS,LN metastasis Yes,1.8 months
same,Median OS,Liver metastasis No,6.6 months
same,Median PFS,Liver metastasis No,4.8 months
same,HR OS,[13],0.61
same,HR PFS,[13],0.46
same,Median OS,Liver metastasis Yes,4.7 months
same,Median PFS,Liver metastasis Yes,1.9 months
same,Median OS,Lung metastasis No,3.7 months
same,Median PFS,Lung metastasis No,2.0 months
same,HR OS,[14],1.24
same,HR PFS,[14],1.17
same,Median OS,Lung metastasis Yes,5.9 months
same,Median PFS,Lung metastasis Yes,1.9 months
same,Median OS,Number of metastases >2,4.0 months
same,Median PFS,Number of metastases >2,1.9 months
same,HR OS,[15],1.59
same,HR PFS,[15],1.86
same,Median OS,Number of metastases ≤2,6.3 months
same,Median PFS,Number of metastases ≤2,2.8 months
same,Median OS,Performance status ECOG 0,5.9 months
same,Median PFS,Performance status ECOG 0,2.1 months
same,Median OS,Performance status ECOG 1,2.4 months
same,Median PFS,Performance status ECOG 1,1.2 months
same,HR OS,[16],2.09
same,HR PFS,[16],2.27
same,Median OS,Peritoneal No,5.5 months
same,Median PFS,Peritoneal No,2.0 months
same,HR OS,[17],0.82
same,HR PFS,[17],0.87
same,Median OS,Peritoneal Yes,5.1 months
same,Median PFS,Peritoneal Yes,1.9 months
same,Median OS,Pre-chemo numbers <4,6.0 months
same,Median PFS,Pre-chemo numbers <4,2.0 months
same,Median OS,Pre-chemo numbers ≥4,4.7 months
same,Median PFS,Pre-chemo numbers ≥4,1.8 months
same,HR OS,[18],1.16
same,HR PFS,[18],0.95
same,Median OS,Primary tumor resection No,4.2 months
same,Median PFS,Primary tumor resection No,2.0 months
same,HR OS,[19],1.04
same,HR PFS,[19],0.79
same,Median OS,Primary tumor resection Yes,5.6 months
same,Median PFS,Primary tumor resection Yes,1.9 months
